The text below walks through data of patent US11932595B2, “VDR-silent vitamin D derivative as inhibitors of SREBP and pharmaceutical use thereof” (KYOTO UNIVERSITY, priority 2020, dated 2024).

Test [1] deals with SREBP-responsive genes. The settings on record: low μM dose, cultured cells; cited from earlier work.
The target in test [2] is T1, SCAP protein (Mus musculus, UniProt Q6GQT6).
T1 construct: from tissue; host or cells: mouse liver
T1 sequence (Q6GQT6 1-1276): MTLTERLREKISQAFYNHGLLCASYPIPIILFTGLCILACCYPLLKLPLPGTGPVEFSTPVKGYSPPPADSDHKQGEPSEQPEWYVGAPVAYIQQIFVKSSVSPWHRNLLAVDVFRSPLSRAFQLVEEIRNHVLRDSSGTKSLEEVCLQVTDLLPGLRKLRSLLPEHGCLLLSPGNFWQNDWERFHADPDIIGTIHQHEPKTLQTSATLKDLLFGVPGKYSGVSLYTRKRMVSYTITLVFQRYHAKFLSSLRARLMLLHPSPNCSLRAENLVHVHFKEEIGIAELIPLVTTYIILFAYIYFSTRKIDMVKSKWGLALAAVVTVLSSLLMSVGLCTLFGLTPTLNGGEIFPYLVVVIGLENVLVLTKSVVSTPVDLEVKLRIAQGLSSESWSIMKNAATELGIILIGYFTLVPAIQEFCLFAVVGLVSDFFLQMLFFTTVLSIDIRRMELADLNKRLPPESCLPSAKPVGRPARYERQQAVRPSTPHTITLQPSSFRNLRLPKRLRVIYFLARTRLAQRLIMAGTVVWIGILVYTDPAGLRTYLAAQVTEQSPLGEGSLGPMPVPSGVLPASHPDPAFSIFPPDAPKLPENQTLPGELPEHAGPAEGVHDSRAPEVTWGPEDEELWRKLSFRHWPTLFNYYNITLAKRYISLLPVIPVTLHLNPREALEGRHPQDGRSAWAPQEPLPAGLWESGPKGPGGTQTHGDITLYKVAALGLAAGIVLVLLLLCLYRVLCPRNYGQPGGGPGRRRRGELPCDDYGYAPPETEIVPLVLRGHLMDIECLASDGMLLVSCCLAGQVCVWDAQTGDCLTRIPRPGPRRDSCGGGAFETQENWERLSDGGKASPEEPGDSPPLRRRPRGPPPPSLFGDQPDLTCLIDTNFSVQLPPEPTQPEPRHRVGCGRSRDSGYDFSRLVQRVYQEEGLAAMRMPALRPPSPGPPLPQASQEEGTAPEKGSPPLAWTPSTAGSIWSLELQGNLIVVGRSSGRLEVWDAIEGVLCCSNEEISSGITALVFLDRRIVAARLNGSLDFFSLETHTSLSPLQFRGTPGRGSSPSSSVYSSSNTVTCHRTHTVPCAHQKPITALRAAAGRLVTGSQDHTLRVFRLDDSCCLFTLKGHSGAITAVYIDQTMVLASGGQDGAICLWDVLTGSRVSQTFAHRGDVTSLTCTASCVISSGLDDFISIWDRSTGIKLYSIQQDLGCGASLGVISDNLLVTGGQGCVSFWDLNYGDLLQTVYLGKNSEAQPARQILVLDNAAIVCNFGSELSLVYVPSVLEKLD
Nature of the test: Short-term in vivo model: Western blot of SCAP protein in the liver. The arrangement: species or system mice. The following applies: FIG. 5F. As to the method:
To quickly and simultaneously examine their SREBP inhibitory activity and VDR-derived calcemic activity in vivo, a short-term in vivo screening system of mice was established. With reference to the previous report (Horton, J. D. et al. Proc. Natl. Acad. Sci. U.S.A. 1998, 95, 5987-5992.), mice were fasted for 48 hours then refed a special diet (low fat, high carbohydrate diet, lacking in vitamin D) for 48 hours before sacrifice. 10 mg/kg compounds or vehicle control were administered intraperitoneally once every 24 hours during the fasting and refeeding. Western blot analysis of SCAP protein in the livers obtained from the indicated mice were obtained, (FIG. 5F).
Background: A western blot detects proteins with antibodies after separation by electrophoresis.

`C=C1CC[C@H](O)C/C1=C/C=C1\CCC[C@]2(C)[C@@H]([C@H](C)CCCC(C)(C)O)CC[C@@H]12` [25(OH)D3, 25-hydroxyvitamin D3, reference compound]: the cellular lipogenesis entry in test [1] is “inhibits cellular lipogenesis”.

Turning to `C[C@H](CCC(F)(F)C(C)(C)O)[C@H]1CC[C@H]2/C(=C/Cn3nnnc3-c3ccccc3)CCC[C@]12C` [Compound 50, (R)-3,3-Difluoro-2-methyl-6-{(1R,3aS,7aR,E)-7a-methyl-4-[2-(5-phenyl-1H-tetrazol-1-yl)ethylidene]octahydro-1H-inden-1-yl}heptan-2-ol], the “increased hepatic expression of SCAP protein after fasting and refeeding” value in test [2] was “canceled”.
